Source: patent US20260167636A1, “NOVEL COMPOUNDS FOR THE DIAGNOSIS OF TDP-43 PROTEINOPATHIES” (AC IMMUNE SA, priority 2022, published 2026)
Like-named read-outs stand apart in the source and are kept apart here. Marks after values point to notes of the source that are not given here.

What was measured:
Assay type in all cases: binding
[1] = target: T1, FTD patient brain-derived TDP-43 aggregates (Homo sapiens, UniProt Q13148); experiment: Micro-radiobinding competition assay against [3H]-reference ligand; conditions: tritiated reference ligand at 25 nM; for Ki: 0.24 nM to 2 μM; for Human brain derived TDP-43 aggregates Mean % competition at 125 nM: compound at 125 nM; for Human brain derived TDP-43 aggregates Mean % competition at 1 μM: compound at 1 μM
T1 construct: A sample of brain tissue (frontal or temporal cortex) was homogenized; from tissue; host or cells: human FTD patient brain, frontal or temporal cortex, sarkosyl-insoluble fraction
Method: (§1) Human brain extracts were prepared as described in Laferriere et al., 2019, Nature Neurosc. A sample of brain tissue (frontal or temporal cortex) was homogenized at 1:4 (w/v) ratio in the homogenization-solubilization (HS) buffer at 4° C. using tissue homogenizer (Precellys) with CKmix homogenization tubes. The following sequence was used for homogenization: 3 cycles of 30 seconds at 5000 rpm (with 15 seconds pause between each cycle). Homogenized samples were aliquoted and stored at −80° C. in 1.5 mL low protein binding tubes.
(§2) Brain homogenates were thawed on ice and resuspended in HS buffer to obtain a final concentration of 2% sarkosyl, 1 unit/μL Benzonase and 1 mM MgCl2. The samples were then incubated at 37° C. under constant shaking at 600 rpm on a thermomixer for 45 minutes (min). The supernatants were collected in a new tube (sarkosyl-soluble fraction, S1). The pellet was resuspended in 1000 μL of myelin floatation buffer and centrifuged at 20,000 g for 60 min at 4° C. The supernatant was carefully removed to remove all the floating lipids. This step was repeated if all the lipids could not be removed in a single step. The pellet was subsequently washed with Phosphate-Buffered Saline (PBS) and centrifuged for 30 min at 20,000 g at 4° C. The final pellet was resuspended in 200 μL PBS and stored at −80° C. (sarkosyl-insoluble fraction). The samples were analyzed by immunoblotting in denaturing conditions.
(§3) Human FTD sarkosyl-insoluble brain extracts were spotted onto microarray slides. Three batches of extracts were used. The slides were incubated with a tritiated reference ligand at 25 nM or with tritiated Compound 1 ([^3H]-Compound 1) at 40 nM or 50 nM depending on the batch used. The example compounds (non-radiolabeled) were used at 1 μM and 125 nM (or 1 μM and 100 nM for compound 15). In some cases, the non-radiolabeled example compounds were further assessed for a range of different concentrations, varying from 0.24 nM to 2 μM for determination of the inhibition constant (Ki). After incubation, slides were washed and scanned by a real-time autoradiography system (BeaQuant, ai4R). Quantification of the signal was performed by using the Beamage image analysis software (ai4R). Non-specific signal was determined with an excess of non-radiolabeled reference compound (2 μM) and specific binding was calculated by subtracting the non-specific signal from the total signal. Competition was calculated as percent, where 0% was defined as the specific binding in the presence of vehicle and 100% as the values obtained in the presence of excess of the non-radiolabeled reference compound. Ki values were calculated in GraphPad Prism8 by applying a nonlinear regression curve fit using a one site, specific binding model. Measurements were performed with at least two technical replicates in the two-concentration competition experiment and with one technical replicate in the experiments including a range of concentrations. For compounds tested in more than one experiment, the mean of the replicates or K; values in independent experiments is reported.
Results: Example compounds 1 to 10 were assessed for their potency to compete with the binding of [^3H]-reference ligand to FTD patient brain-derived TDP-43 aggregates. Results of the micro-radiobinding competition assay for the example compounds are shown in Table 2 below as: % competition at 1 μM and 125 nM.

[2] = target: T2, Human brain derived TDP-43 aggregates (Homo sapiens, UniProt Q13148); experiment: Micro-radiobinding competition assay against [3H]-Compound 1; conditions: for Ki: 0.24 nM to 2 μM; for Ki / Human brain derived TDP-43 aggregates Mean % competition at 1 μM: [3H]-Compound 1 at 50 nM (40 nM for compound 15); for Human brain derived TDP-43 aggregates Mean % competition at 125 nM: compound at 125 nM, [3H]-Compound 1 at 50 nM; for Human brain derived TDP-43 aggregates Mean % competition at 1 μM: compound at 1 μM
T2 construct: A sample of brain tissue (frontal or temporal cortex) was homogenized; from tissue; host or cells: human FTD patient brain, frontal or temporal cortex, sarkosyl-insoluble fraction
Method: as §1, §2, §3
Example compounds 11 to 15 were assessed for their potency to compete with the binding of [^3H]-Compound 1 on two different batches of brain extracts. Results of the micro-radiobinding competition assay for the example compounds are shown in Table 3 below as: % competition at 1 μM and 125 nM (with Compound 1 at 50 nM) for compounds 11 to 14, or % competition at 1 μM and 100 nM (with Compound 1 at 40 nM) for compound 15 respectively.

[3] = target: T3, TDP-43 aggregates in human FTD sarkosyl-insoluble brain extracts (Homo sapiens, UniProt Q13148); experiment: Kd determination with micro-radiobinding (saturation) assay on human FTD sarkosyl insoluble brain extract
T3 construct: A sample of brain tissue (frontal or temporal cortex) was homogenized; from tissue; host or cells: human FTD patient brain, frontal or temporal cortex, sarkosyl-insoluble fraction
Method: as §1, §2
2.1 Kd Determination on Human FTD Sarkosyl Insoluble Brain Extract with Micro-Radiobinding Assay of [^3H]-Compound 1, 4, 8, 11, 12
Human FTD sarkosyl-insoluble brain extracts were spotted onto microarray slides. The slides were incubated with [^3H]-Compound 1, [^3H]-Compound 4, [^3H]-Compound 8, [^3H]-Compound 11, or [^3H]-Compound 12 respectively, in a range of concentrations, varying from 1.93 to 300 nM. After incubation, slides were washed and scanned by a real-time autoradiography system (BeaQuant, ai4R). Quantification of the signal was performed by using the Beamage image analysis software (ai4R). Non-specific signal was determined with an excess of non-radiolabelled compound 1, 4, 8, 11 or 12 (2 μM), respectively, and specific binding was calculated by subtracting the non-specific signal from the total signal.
The Kd (Dissociation constant) and R^2 (parameter ranging between 0.0 and 1.0 that quantifies the goodness of fit, and the best curve fit obtained with value of 1.0) were obtained by fitting the specific binding data with non-linear regression analysis, using a one-site specific binding model in GraphPad Prism8.

[4] = tritiated compound 1.93 to 300 nM on human FTD sarkosyl-insoluble brain extracts, one-site specific binding fit, read-out: Kd (dissociation constant)
[5] = different batch of FTD sarkosyl-insoluble brain extracts, read-out: Kd (dissociation constant)

T2 sequence (Q13148 whole entry): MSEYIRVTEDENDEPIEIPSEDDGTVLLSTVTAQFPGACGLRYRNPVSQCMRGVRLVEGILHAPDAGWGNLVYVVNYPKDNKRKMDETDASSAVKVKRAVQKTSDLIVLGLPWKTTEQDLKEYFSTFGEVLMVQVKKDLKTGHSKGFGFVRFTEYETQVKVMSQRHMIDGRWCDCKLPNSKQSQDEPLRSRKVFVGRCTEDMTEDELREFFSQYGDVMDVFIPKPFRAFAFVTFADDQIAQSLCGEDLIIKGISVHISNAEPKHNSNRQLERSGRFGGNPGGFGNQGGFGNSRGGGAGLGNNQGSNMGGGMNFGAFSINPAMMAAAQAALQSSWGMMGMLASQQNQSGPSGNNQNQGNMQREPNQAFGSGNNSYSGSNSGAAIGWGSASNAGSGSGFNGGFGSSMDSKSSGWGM
T1 sequence (Q13148 whole entry): as above
T3 sequence (Q13148 whole entry): as above

Ki [1] [nM] | Human brain derived TDP-43 aggregates Mean % competition at 125 nM [1] [%] | Human brain derived TDP-43 aggregates Mean % competition at 1 μM [1] [%] | other results | SMILES
105 | 63 | 102 |  | O=C(Nc1ccc(F)nc1)c1cnc(-c2ccc(N3CC[C@@H](F)C3)nc2)s1 [Compound 1, (R)—N-(6-fluoropyridin-3-yl)-2-(6-(3-fluoropyrrolidin-1-yl)pyridin-3-yl)thiazole-5-carboxamide]
116 | 60 | 94 |  | O=C(Nc1cnsc1)c1cnc(-c2ccc(N3CC[C@@H](F)C3)nc2)s1 [Compound 4, (R)-2-(6-(3-fluoropyrrolidin-1-yl)pyridin-3-yl)-N-(isothiazol-4-yl)thiazole-5-carboxamide]
223 | 53 | 70 |  | O=C(Nc1cnc(F)cn1)c1cnc(-c2ccc(N3CC[C@@H](F)C3)nc2)s1 [Compound 5]
89 | 46 | 83 |  | O=C(Nc1cnc(F)nc1)c1cnc(-c2ccc(N3CC[C@@H](F)C3)nc2)s1 [Compound 6]
63 | 52 | 80 |  | Nc1cc(NC(=O)c2cnc(-c3ccc(N4CC[C@H](F)C4)nc3)s2)ccc1F [Compound 7]
75 | 47 | 78 |  | O=C(Nc1ccncc1)c1cnc(-c2cnc(N3CC[C@H](F)C3)nc2)s1 [Compound 8, (S)-2-(2-(3-fluoropyrrolidin-1-yl)pyrimidin-5-yl)-N-(pyridin-4-yl)thiazole-5-carboxamide]
82 | 60 | 83 |  | O=C(Nc1ccncc1)c1cnc(-c2cnc(N3CC[C@@H](F)C3)cn2)s1 [Compound 9]
71 | 54 | 70 |  | O=C(Nc1ccc(F)nc1)c1cnc(-c2ccc(N3CC[C@@H](F)C3)cc2)s1 [Compound 10]
 |  |  | Ki [2]: 50 nM; Human brain derived TDP-43 aggregates Mean % competition at 125 nM [2]: 65%; Human brain derived TDP-43 aggregates Mean % competition at 1 μM [2]: 80% | O=C(Nc1cncc(F)c1)c1cnc(-c2ccc(N3CC[C@@H](F)C3)nc2)s1 [Compound 11, (R)—N-(5-fluoropyridin-3-yl)-2-(6-(3-fluoropyrrolidin-1-yl)pyridin-3-yl)thiazole-5-carboxamide]
 |  |  | Ki [2]: 213 nM; Human brain derived TDP-43 aggregates Mean % competition at 125 nM [2]: 43%; Human brain derived TDP-43 aggregates Mean % competition at 1 μM [2]: 50% | O=C(Nc1cncc(F)c1)c1sc(-c2ccc(N3CC[C@@H](F)C3)nc2)nc1F [Compound 12, (R)-4-fluoro-N-(5-fluoropyridin-3-yl)-2-(6-(3-fluoropyrrolidin-1-yl)pyridin-3-yl)thiazole-5-carboxamide]
 |  |  | Ki [2]: 107 nM; Human brain derived TDP-43 aggregates Mean % competition at 125 nM [2]: 42%; Human brain derived TDP-43 aggregates Mean % competition at 1 μM [2]: 75% | O=C(Nc1ccc(F)nc1)c1sc(-c2ccc(N3CC[C@@H](F)C3)nc2)nc1F [Compound 13, (R)-4-fluoro-N-(6-fluoropyridin-3-yl)-2-(6-(3-fluoropyrrolidin-1-yl)pyridin-3-yl)thiazole-5-carboxamide]
 |  |  | Ki [2]: 153 nM; Human brain derived TDP-43 aggregates Mean % competition at 125 nM [2]: 38%; Human brain derived TDP-43 aggregates Mean % competition at 1 μM [2]: 77% | O=C(Nc1cncnc1)c1sc(-c2ccc(N3CC[C@@H](F)C3)nc2)nc1F [Compound 14]
 |  |  | Ki [2]: 10 nM; Mean % competition at 100 nM ([2]; compound at 100 nM, [3H]-Compound 1 at 40 nM): 47* %; Human brain derived TDP-43 aggregates Mean % competition at 1 μM [2]: 92% | O=C(Nc1cnsc1)c1sc(-c2ccc(N3CC[C@@H](F)C3)nc2)nc1F [Compound 15]
 |  |  | Kd ([3]; data from two independent experiments, human FTD sarkosyl-insoluble brain extracts, read-out: average Kd): 53 ± 10 nM; specific binding ([3]; human FTD sarkosyl insoluble brain extracts, result in words): high specific binding; Kd [3, 4]: 52 nM | O=C(Nc1ccc(F)nc1)c1cnc(-c2ccc(N3CC[C@@H](F)C3)nc2)s1 [[^3H]-Compound 1]
 |  |  | Kd [3, 5]: 51 nM | O=C(Nc1cnsc1)c1cnc(-c2ccc(N3CC[C@@H](F)C3)nc2)s1 [[^3H]-Compound 4, tritiated (R)-2-(6-(3-fluoropyrrolidin-1-yl)pyridin-3-yl)-N-(isothiazol-4-yl)thiazole-5-carboxamide]
 |  |  | Kd [3, 5]: 75 nM | O=C(Nc1ccncc1)c1cnc(-c2cnc(N3CC[C@H](F)C3)nc2)s1 [[^3H]-Compound 8, tritiated (S)-2-(2-(3-fluoropyrrolidin-1-yl)pyrimidin-5-yl)-N-(pyridin-4-yl)thiazole-5-carboxamide]
 |  |  | Kd [3, 4]: 80 nM | O=C(Nc1cncc(F)c1)c1cnc(-c2ccc(N3CC[C@@H](F)C3)nc2)s1 [[^3H]-Compound 11, tritiated (R)—N-(5-fluoropyridin-3-yl)-2-(6-(3-fluoropyrrolidin-1-yl)pyridin-3-yl)thiazole-5-carboxamide]
 |  |  | Kd [3, 4]: 67 nM | O=C(Nc1cncc(F)c1)c1sc(-c2ccc(N3CC[C@@H](F)C3)nc2)nc1F [[^3H]-Compound 12]
